From paper PMC3983201, “6-Methoxyflavanones as Bitter Taste Receptor Blockers for hTAS2R39” (PLoS ONE, 2014)
Like-named read-outs stand apart in the source and are kept apart here. One block for each molecule: values may come before it.

Legend:
hTAS2R39 = molecular target: T1, hTAS2R39 (Homo sapiens, UniProt P59534); assay: Calcium assay of hTAS2R39 activation/inhibition in HEK293 T-Rex Flp-In cells; type: cell-based
T1 construct: first 45 amino acids of rat somatostatin receptor type 3 (sst3 membrane-targeting tag) (N); expressed in transfected cells; host or cells: HEK293 T-Rex Flp-In cells stably expressing Gα16-gust44; receptor in pcDNA5/FRT, induced with doxycycline
T1 sequence (P59534 1-338): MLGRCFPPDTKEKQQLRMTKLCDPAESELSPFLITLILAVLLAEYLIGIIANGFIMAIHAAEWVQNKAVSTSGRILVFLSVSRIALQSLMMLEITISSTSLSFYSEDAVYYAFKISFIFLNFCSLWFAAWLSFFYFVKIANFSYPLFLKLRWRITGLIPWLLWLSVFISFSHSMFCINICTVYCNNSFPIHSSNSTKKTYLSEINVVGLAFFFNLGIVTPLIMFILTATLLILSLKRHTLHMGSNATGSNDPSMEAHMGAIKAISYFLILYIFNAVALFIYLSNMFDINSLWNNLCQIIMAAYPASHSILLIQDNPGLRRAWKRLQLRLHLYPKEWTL

hTAS2R14 = molecular target: T2, hTAS2R14 (Homo sapiens, UniProt Q9NYV8); assay: Calcium assay of hTAS2R14 activation/inhibition in HEK293 T-Rex Flp-In cells; type: cell-based; conditions: for IC50, Simultaneous / Threshold, Simultaneous: simultaneous addition, n.b. = no blocking; for IC50 / Threshold, Stepwise: stepwise addition
T2 construct: first 45 amino acids of rat somatostatin receptor type 3 (sst3 membrane-targeting tag) (N); expressed in transfected cells; host or cells: HEK293 T-Rex Flp-In cells stably expressing Gα16-gust44; induced with doxycycline
T2 sequence (Q9NYV8 1-317): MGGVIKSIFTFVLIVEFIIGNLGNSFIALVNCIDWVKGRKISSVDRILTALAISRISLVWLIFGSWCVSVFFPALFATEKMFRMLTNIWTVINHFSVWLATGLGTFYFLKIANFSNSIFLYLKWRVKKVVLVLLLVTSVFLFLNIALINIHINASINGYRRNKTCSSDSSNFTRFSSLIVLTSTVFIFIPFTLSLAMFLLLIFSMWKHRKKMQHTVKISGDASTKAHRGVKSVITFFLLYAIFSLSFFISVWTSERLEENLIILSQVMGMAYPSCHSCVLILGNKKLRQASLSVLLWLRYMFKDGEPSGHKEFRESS
From the text: For functional expression of the human bitter taste receptor hTAS2R39, HEK293 T-Rex Flp-In cells (Invitrogen, San Diego, CA, USA) were used, stably expressing the chimeric G-protein α-subunit Gα16-gust44 (cloned into pcDNA4 (Invitrogen)) and the human bitter receptor genes for hTAS2R39 (cloned into pcDNA5/FRT (Invitrogen)). The bitter receptor gene contained a DNA sequence encoding the first 45 amino acids of rat somatostatin receptor type 3 at its 5′ end (the receptor expression was achieved according to [18] with exception of the HSV-tag), in order to improve membrane targeting of the receptor protein. The same procedure was applied for stable expression of hTAS2R14. Cells were maintained in Dulbecco's Modified Eagle's Medium (DMEM) and 10% (v/v) tetracycline-free FBS (both Lonza, Verviers, Belgium) supplemented with blasticidin (5 μg/mL), geneticin (400 μg/mL) and hygromycin (100 μg/mL) (all from Invitrogen). Cells were grown and maintained at 37 °C and 5% (v/v) CO2.
Cells were seeded into poly-L-lysine-coated (Sigma-Aldrich) 96-well plates (black wall, clear bottom, Greiner bio-one, Frickenhausen, Germany) at a density of 7*10^3 cells in 100 μL/well and cultured for 24 h. Transcription of the receptors was induced by adding 0.25 μg/mL doxycycline (Sigma-Aldrich). […] One hour after loading, cells were washed with Tyrode's buffer and taken up in Tyrode's buffer. Stock solutions of test compounds were prepared in DMSO and diluted to the appropriate concentration in Tyrode's buffer, not exceeding a DMSO concentration of 1% (v/v).
Two methods of compound administration were applied: simultaneous and stepwise addition of potential antagonist and agonist. The first 17 s before compound addition were used for baseline determination. For the simultaneous method, agonist and potential antagonist were pre-mixed, administered after 17 s, and fluorescence was measured for in total 90 s. For the stepwise method, after 17 s, the potential antagonist was added, fluorescence was measured until 120 s, and after 120 s the agonist was added and measured for another 120 s, in total 240 s. […] Each experiment was performed at least in duplicate in separate experiments (as indicated for each figure).
Data processing was done as reported previously. In brief, SoftMax Pro 5.4 software (Molecular Devices Corporation) was used to plot the fluorescence signals. The fluorescence value (ΔF/F0), representing receptor activity, was calculated by subtracting the baseline fluorescence (F0) prior to loading from the maximum fluorescence (F) after compound addition, divided by the signal of the baseline in order to normalize background fluorescence. Dose-response curves were established as non-linear regression curves using Graph Pad Prism (version 4 for Windows, Graph Pad Software, San Diego, CA, USA). Half-maximal effective concentrations (EC50) and half-maximal inhibitory concentrations (IC50) were calculated. Error bars reflect the standard error of the mean (SEM). Statistical analysis was performed in Graph Pad Prism (one-way ANOVA at 5% risk level, followed by Bonferroni's post hoc test).
Inhibition was indicated when [drawing 1] . In case of indicated inhibition, flavanones were applied at different concentrations, in order to test for dose-dependent inhibition, at the EC80 concentration of the agonist. […] To investigate the specificity of flavanones for inhibition of hTAS2R39 and hTAS2R14, another bitter taste receptor, hTAS2R16 (not known to be activated by flavonoids), was used in inhibition experiments ( File S3 ) towards its agonist salicin.

[1] = inhibition of hTAS2R14 response to 70 μM genistein
[2] = inhibition of hTAS2R14 response to 640 μM ECG

- maximal signal reduction (hTAS2R39; 1.7 mM denatonium benzoate, simultaneous addition, up to 63 μM): 58%
- receptor blocking (hTAS2R39; 1.7 mM denatonium benzoate, stepwise addition): 100%
- Threshold, Simultaneous (hTAS2R39; inhibition of hTAS2R39 response to 1.7 mM denatonium benzoate, simultaneous addition, n.b. = no blocking): 8 µM
- IC50 (hTAS2R39; inhibition of hTAS2R39 response to 1.7 mM denatonium benzoate, simultaneous addition, n.b. = no blocking, read-out: IC50, Simultaneous): 22 ± 12 µM
- Threshold, Stepwise (hTAS2R39; inhibition of hTAS2R39 response to 1.7 mM denatonium benzoate, stepwise addition): 32 µM
- IC50 (hTAS2R39; inhibition of hTAS2R39 response to 1.7 mM denatonium benzoate, stepwise addition, read-out: IC50, Stepwise): 55 ± 3 µM
- IC50, Simultaneous (hTAS2R14; [1]): n.b.
- Threshold, Simultaneous (hTAS2R14; [1]): n.b.
- IC50 (hTAS2R14; [1]): ~500 µM
- Threshold, Stepwise (hTAS2R14; [1]): 32 µM
Structure (SMILES): COc1ccc2c(c1)C(=O)CC(c1ccc(F)cc1)O2 (stereo not drawn) [Compound 6, 4′-Fluoro-6-methoxyflavanone]
- reversibility of inhibition (washout experiment) (hTAS2R39; 200 μM ECG, 100 μM antagonist, washed with Tyrode's buffer, stimulated again): reversible
- maximal signal reduction (hTAS2R39; 200 μM ECG, simultaneous addition, reached at 63 μM): 65%
- receptor blocking (hTAS2R39; 200 μM ECG, stepwise addition (applied prior to ECG)): 100%
- mechanism of antagonism on hTAS2R39 (hTAS2R39; ECG dose-response curves at various antagonist concentrations and wash-out experiments): reversible insurmountable antagonism
- Threshold, Simultaneous (hTAS2R39; inhibition of hTAS2R39 response to 200 μM ECG, simultaneous addition, n.b. = no blocking): 8 µM
- IC50 (hTAS2R39; inhibition of hTAS2R39 response to 200 μM ECG, simultaneous addition, n.b. = no blocking, read-out: IC50, Simultaneous): 32 ± 7 µM
- Threshold, Stepwise (hTAS2R39; inhibition of hTAS2R39 response to 200 μM ECG, stepwise addition): 63 µM
- IC50 (hTAS2R39; inhibition of hTAS2R39 response to 200 μM ECG, stepwise addition, read-out: IC50, Stepwise): 102 ± 9 µM
- significance of the inhibitory effect at screening concentrations (hTAS2R39; simultaneous application of 200 μM ECG and 250 μM flavanone): significant
- reduction of ECG response on hTAS2R39 (screening for inhibition) (hTAS2R39; simultaneous application of 200 μM ECG and 250 μM flavanone, inhibition when response ratio <1): showed reduction of ECG responses
- blocking of hTAS2R14 (hTAS2R14; 640 μM ECG, simultaneous application): no blocking
- inhibition of hTAS2R14 (hTAS2R14; 640 μM ECG, stepwise application): an inhibitory effect was observed
- IC50, Simultaneous (hTAS2R14; [2]): n.b.
- Threshold, Simultaneous (hTAS2R14; [2]): n.b.
- IC50 (hTAS2R14; [2]): 79 ± 25 µM
- Threshold, Stepwise (hTAS2R14; [2]): <8 µM

- IC50, Simultaneous (hTAS2R14; [1]): n.b.
- Threshold, Simultaneous (hTAS2R14; [1]): n.b.
- IC50 (hTAS2R14; [1]): 741 ± 143 µM
- Threshold, Stepwise (hTAS2R14; [1]): 500 µM
Structure (SMILES): COc1ccc2c(c1)C(=O)CC(c1ccccc1)O2 (stereo not drawn) [Compound 11, 6-Methoxyflavanone]
- IC50, Simultaneous (hTAS2R14; [2]): n.b.
- Threshold, Simultaneous (hTAS2R14; [2]): n.b.
- IC50 (hTAS2R14; [2]): 447 ± 123 µM
- Threshold, Stepwise (hTAS2R14; [2]): 250 µM

- inhibition of hTAS2R14 by probenecid in the buffer (hTAS2R14; 0.5 mM probenecid in Tyrode's buffer, agonist equol): did not lead to inhibition
Structure (SMILES): CCCN(CCC)S(=O)(=O)c1ccc(C(=O)O)cc1 [probenecid, p-(dipropylsulfamyl)benzoic acid, reference compound]
- inhibition of hTAS2R39 by probenecid in the buffer (hTAS2R39; 0.5 mM probenecid in Tyrode's buffer, agonist ECG): did not lead to inhibition
